In ChEMBL document CHEMBL4699402, “Identification of N-benzothiazolyl-2-benzenesulfonamides as novel ABCA1 expression upregulators” (RSC Med Chem, 2020):
Active and inactive are the calls of the source. No cut-off for these calls is given here.

How the values were obtained:
[1] = Upregulation of ABCA1 expression in human HepG2 cells expressing luciferase plasmid assessed as maximal increase incubated for 24 hrs by luciferase reporter gene assay relative to control; format: functional
[2] = Upregulation of ABCA1 expression in human HepG2 cells expressing luciferase plasmid incubated for 24 hrs by luciferase reporter gene assay; format: functional, cell-based; details: HepG2, 24 h
RAW264.7 [3] = experiment: Upregulation of ABCA1 mRNA expression in mouse RAW264.7 cells at 5 uM incubated for 24 hrs by RT-qPCR analysis; format: functional, cell-based
[4] = Potency index, ration of WY06 EC50 to test compound EC50 for upregulation of ABCA1 expression in human HepG2 cells expressing luciferase plasmid incubated for 24 hrs by luciferase reporter gene assay; format: functional
[5] = Upregulation of ABCA1 expression in human HepG2 cells expressing luciferase plasmid assessed as maximal fold increase incubated for 24 hrs by luciferase reporter gene assay relative to control; format: functional
HepG2 [6] = experiment: Cytotoxicity against human HepG2 cells assessed as reduction in cell viability incubated for 72 hrs measured by CCK8 assay; format: cell-based; details: hepg2, 72 h
RAW264.7 [7] = experiment: Upregulation of ABCA1 protein expression in mouse RAW264.7 cells incubated for 24 hrs by western blot analysis; format: functional, cell-based; details: dose microM 2.5-10, time 24.0 hrs
HepG2 [8] = experiment: Upregulation of ABCA1 expression in human HepG2 cells expressing luciferase plasmid incubated for 24 to 48 hrs by luciferase reporter gene assay; format: functional, cell-based; details: dose microM 0.78-50, time hrs 24-48
RAW264.7 [9] = experiment: Upregulation of ApoA-I protein expression in mouse RAW264.7 cells at 2.5 to 10 uM by western blot analysis; format: functional, cell-based; details: dose microM 2.5-10
[10] = Upregulation of ABCA1 protein expression in mouse RAW264.7 cells assessed as maximal increase at 10 uM incubated for 24 hrs by western blot analysis relative to control; format: functional
[11] = Upregulation of ABCA1 mRNA expression in mouse RAW264.7 cells assessed as maximal upregulation at 10 uM incubated for 24 hrs by RT-qPCR analysis relative to control; format: functional
RAW264.7 [12] = experiment: Induction of cholesterol efflux in mouse RAW264.7 cells assessed as decrease in cellular 22-NBD-cholesterol content at 2.5 to 10 uM incubated for 24 hrs by DAPI staining based fluorescence analysis; format: functional, cell-based; details: dose microM 2.5-10, time 24.0 hrs
[13] = Upregulation of ABCA1 mRNA expression in mouse RAW264.7 cells assessed as maximal fold increase at 5 uM incubated for 24 hrs by RT-qPCR analysis relative to control; format: functional
RAW264.7 [14] = experiment: Upregulation of ABCA1 protein expression in mouse RAW264.7 cells at 2.5 to 10 uM incubated for 24 hrs by western blot analysis; format: functional, cell-based; details: dose microM 2.5-10, time 24.0 hrs
RAW264.7 [15] = experiment: Upregulation of ABCA1 mRNA expression in mouse RAW264.7 cells at 2.5 to 10 uM incubated for 24 hrs by RT-qPCR analysis; format: functional, cell-based; details: dose microM 2.5-10, time 24.0 hrs

| EC50 [2] | Structure (SMILES) | Activity [1] | Activity (HepG2 [6]) | other results |
| --- | --- | --- | --- | --- |
| 33.4 µM | C=CCN(c1nc2ccccc2s1)S(=O)(=O)c1ccc(N)cc1 | 115% |  |  |
| 2.57 µM | N#CCN(c1nc2ccc(F)cc2s1)S(=O)(=O)c1ccc(N)cc1 | 163% |  |  |
| 0.37 µM | CCOC(=O)CN(c1nc2ccc(Cl)cc2s1)S(=O)(=O)c1ccc(N)cc1 | 174% | Non-Toxic | Activity (RAW264.7 [3]): Active; Ratio EC50 [4]: >=15; fold change (FC) [5]: 1.74; Activity (RAW264.7 [7]): Dose-dependent effect |
| 1.24 µM | CCOC(=O)CN(c1nc2ccccc2s1)S(=O)(=O)c1ccc(N)cc1 | 209% | Non-Toxic |  |
| 0.41 µM | N#CCN(c1nc2ccc(Cl)cc2s1)S(=O)(=O)c1ccc(N)cc1 | 206% | Non-Toxic | Activity (HepG2 [8]): Dose-dependent effect; Activity (RAW264.7 [9]): inactive; Activity [10]: 240%; Ratio EC50 [4]: >15; Activity [11]: 210%; Activity (RAW264.7 [12]): Active; Activity (RAW264.7 [7]): Dose-dependent effect |
| 26 µM | C=CCN(c1nc2ccc(F)cc2s1)S(=O)(=O)c1cccc(N)c1 | 152% |  |  |
| 8.51 µM | N#CCN(c1nc2ccccc2s1)S(=O)(=O)c1ccc(N)cc1 | 157% |  |  |
| 7.4 µM | C=CCN(c1nc2ccc(F)cc2s1)S(=O)(=O)c1ccc(N)cc1 | 135% |  |  |
| > 50 µM | N#CCN(c1nc2ccccc2s1)S(=O)(=O)c1cccc(N)c1 | 124% |  |  |
| 0.97 µM | CCOC(=O)CN(c1nc2ccc(F)cc2s1)S(=O)(=O)c1ccc(N)cc1 | 167% | Non-Toxic |  |
| 5.84 µM | N#CCN(c1nc2ccc(Cl)cc2s1)S(=O)(=O)c1cccc(N)c1 | 168% | Non-Toxic | fold change (FC) [13]: 1.5; fold change (FC) [5]: 1.68; Activity (RAW264.7 [7]): Dose-dependent effect |
| 6.38 µM | CCOC(=O)CN(c1nc2ccc(OC)cc2s1)S(=O)(=O)c1ccc(N)cc1 | 138% | Non-Toxic | Activity (RAW264.7 [14]): inactive; Activity (RAW264.7 [15]): inactive; fold change (FC) [5]: 1.38 |
| > 50 µM | C=CCN(c1nc2ccccc2s1)S(=O)(=O)c1cccc(N)c1 | 136% |  |  |
| 10.6 µM | C=CCN(c1nc2ccc(Cl)cc2s1)S(=O)(=O)c1ccc(N)cc1 | 135% |  |  |
